Measurements from PMC12293048, “New Benzimidazole 3′-Deoxynucleosides: Synthesis and Antiherpes Virus Properties” (Biomolecules, 2025).
“And” between values parts separate entries of the source, which are not always exact repeats. Equal entries are not always repeated. Where two headings read alike, the source gives them in different places.

Legend:
[1] = tested on: HSV-1/L2/R^ACV; assay: microbe, parasite or virus in culture; assay type: cell-based, herpes simplex virus 1; conditions: for IC95: Human alphaherpesvirus 1, Vero C1008, read-out: IC95 HSV-1/L2/R^ACV, CPE inhibited almost completely, Vero E6, MOI 0.01, acyclovir-resistant strain
Procedure: (§1) Vero 6 cells for determining cytotoxicity and antiviral activity were cultured according to the method described in [29].
In 96-well plastic plates with the generated cell monolayer, serial dilutions of the compounds were prepared at […] 1:2 with the maintenance medium (Eagle′s medium and medium 199, mixed in a ratio 1:1). Vero E6 cells were then infected with the infection material at an MOI of 0.01 PFU/cell; incubation was performed at 37 °C in an atmosphere of 5% CO2. Cytotoxicity was determined quantitatively by the trypan blue exclusion method and expressed as CD50: the concentration of the drug at which 50% of cells die after 72 h. […] The duration of incubation was 48 h and 72 h for MOI […], respectively. […] An antiviral activity was assessed by determining ID50 and ID95 (concentrations of compounds that inhibit the development of virus-induced CPE as compared with the control by 50% and almost completely). […] The results of three independent experiments are shown in Table S1 (Supplementary Materials).

[2] = tested on: HSV-1/L2; assay: CPE inhibition assay, HSV-1 reference strain L2 in Vero E6 cells; assay type: cell-based, herpes simplex virus 1; conditions: for IC95: Human alphaherpesvirus 1, Vero C1008, CPE inhibited almost completely
Procedure: as §1
Vero E6 cells were then infected with the infection material at an MOI of 0.01 PFU/cell; incubation was performed at 37 °C in an atmosphere of 5% CO2. […] The duration of incubation was 48 h and 72 h for MOI 0.01 PFU/mL, respectively. […] The results of three independent experiments are shown in Table S1 (Supplementary Materials).

[3] = tested on: Vero E6 cells; assay: Cytotoxicity, trypan blue exclusion; assay type: cell-based; conditions: for CD50: 50% cytotoxic concentration, Vero E6 cells, 72 h; for MTC (maximal tolerable concentration): highest concentration that does not cause death of Vero E6 cells
[4] = tested on: HSV-1; conditions: cited from earlier work
[5] = tested on: HCMV; conditions: cited from earlier work
[6] = Human alphaherpesvirus 1, Vero C1008, read-out: IC50 HSV-1/L2/R^ACV, CPE inhibition by 50%, Vero E6, MOI 0.01, acyclovir-resistant TK-negative strain
[7] = Human alphaherpesvirus 1, Vero C1008, read-out: IC50 HSV-1/L2, CPE inhibition by 50%, Vero E6, MOI 0.01
[8] = read-out: IC50 HSV-1/L2, CPE inhibition by 50%, Vero E6, MOI 0.01

SMILES: c1ccc2[nH]cnc2c1 [Compound 1, Benzimidazole]
- IC50 [1, 6]: 1060 µM
- IC95 ([2]; Vero E6, MOI 0.01): 4240 µM
- IC50 [2, 7]: 1060 µM
- IC50 [2, 8]: 1060 µM
- CD50 [3]: 6313.85 ± 167.47 µM
- MTC (maximal tolerable concentration) [3]: 4235.49 µM

SMILES: Fc1cc2nc[nH]c2cc1F [Compound 2, 5,6-Difluorobenzimidazole]
- IC50 [1, 6]: 406 µM
- IC95 ([2]; Vero E6, MOI 0.01): 1620 µM
- IC50 [2, 7]: 203 µM
- IC50 [2, 8]: 203 µM
- CD50 [3]: 2433.81 ± 37.72 µM
- MTC (maximal tolerable concentration) [3]: 1623.06 µM

SMILES: Fc1cc(F)c2[nH]cnc2c1 [Compound 3, 4,6-Difluorobenzimidazole]
- IC50 [1, 6]: 812 µM
- IC95 ([2]; Vero E6, MOI 0.01): 1620 µM
- IC50 [2, 7]: 812 µM
- IC50 [2, 8]: 812 µM
- CD50 [3]: 2489.32 ± 92.46 µM
- MTC (maximal tolerable concentration) [3]: 811.53 µM

SMILES: Fc1cc2nc[nH]c2c(F)c1F [Compound 4, 4,5,6-Trifluorobenzimidazole]
- IC50 [1, 6]: 363 µM
- IC95 ([2]; Vero E6, MOI 0.01): 1450 µM
- IC50 [2, 7]: 363 µM
- IC50 [2, 8]: 363 µM
- CD50 [3]: 2179.98 ± 27.03 µM
- MTC (maximal tolerable concentration) [3]: 1453.32 µM

SMILES: COc1c(F)cc2nc[nH]c2c1F [Compound 5, 4,6-Difluoro-5-methoxybenzimidazole]
- IC50 [1, 6]: 1360 µM
- IC95 ([2]; Vero E6, MOI 0.01): 2720 µM
- IC50 [2, 7]: 1020 µM
- CD50 [3]: 2909.48 ± 123.18 µM
- MTC (maximal tolerable concentration) [3]: 1358.40 µM

SMILES: Nc1nc2ccccc2[nH]1 [Compound 6, 2-aminobenzimidazole]
- IC50 [1, 6]: 705 µM
- IC95 ([2]; Vero E6, MOI 0.01): 939 µM
- IC50 [2, 7]: 470 µM
- IC50 [2, 8]: 470 µM
- CD50 [3]: 1422.89 ± 18.04 µM
- MTC (maximal tolerable concentration) [3]: 939.43 µM

SMILES: COc1cc2nc(N)[nH]c2cc1F [Compound 7, 2-amino-5-fluoro-6-methoxybenzimidazole]
- IC50 [1, 6]: 173 µM
- IC95 ([2]; Vero E6, MOI 0.01): 690 µM
- IC50 [2, 7]: 173 µM
- IC50 [2, 8]: 173 µM
- CD50 [3]: 2165.79 ± 33.74 µM
- MTC (maximal tolerable concentration) [3]: 1380.68 µM

SMILES: Nc1nc2cc(F)c(F)cc2[nH]1 [Compound 8, 2-Amino-5,6-difluorobenzimidazole]
- IC50 [1, 6]: 370 µM
- IC95 ([2]; Vero E6, MOI 0.01): 739 µM
- IC50 [2, 7]: 370 µM
- IC50 [2, 8]: 370 µM
- CD50 [3]: 1659.39 ± 60.16 µM
- MTC (maximal tolerable concentration) [3]: 739.43 µM

SMILES: OC[C@@H]1C[C@@H](O)[C@H](n2cnc3ccccc32)O1 [Compound 9, 1-(β-D-3′-Deoxyribofuranosyl)benzimidazole]
- IC50 [1, 6]: 1250 µM
- IC95 [1]: 5020 µM
- IC95 ([2]; Vero E6, MOI 0.01): 2510 µM
- IC50 [2, 7]: 626 µM
- IC50 [2, 8]: 626 µM
- CD50 [3]: > 5019.25 µM
- MTC (maximal tolerable concentration) [3]: 2505.13 µM

SMILES: OC[C@@H]1C[C@@H](O)[C@H](n2cnc3cc(F)c(F)cc32)O1 [Compound 10, 5,6-Difluoro-1-(β-D-3′-deoxyribofuranosyl)benzimidazole]
- IC50 [1, 6]: 1480 µM
- IC95 [1]: ≥ 1970 µM
- IC95 ([2]; Vero E6, MOI 0.01): 985 µM
- IC50 [2, 7]: 246 µM
- IC50 [2, 8]: 246 µM
- CD50 [3]: 2901.81 ± 60.28 µM
- MTC (maximal tolerable concentration) [3]: 1970.86 µM

SMILES: OC[C@@H]1C[C@@H](O)[C@H](n2cnc3c(F)cc(F)cc32)O1 [Compound 11a, 4,6-difluoro-1-(β-D-3′-deoxyribofuranosyl)benzimidazole]
- IC50 [1, 6]: < 2010 µM
- IC95 [1]: 2010 µM
- IC95 ([2]; Vero E6, MOI 0.01): 1000 µM
- IC50 [2, 7]: 251 µM
- IC50 [2, 8]: 251 µM
- CD50 [3]: > 2007.37 µM
- MTC (maximal tolerable concentration) [3]: 1003.68 µM

SMILES: OC[C@@H]1C[C@@H](O)[C@H](n2cnc3c(F)c(F)c(F)cc32)O1 [Compound 12a, 4,5,6-trifluoro-1-(β-D-3′-deoxyribofuranosyl)benzimidazole]
- IC50 [1, 6]: 494 µM
- IC95 [1]: 2000 µM
- IC95 ([2]; Vero E6, MOI 0.01): 1000 µM
- IC50 [2, 7]: 250 µM
- IC50 [2, 8]: 250 µM
- CD50 [3]: ≥ 3999.31 µM
- MTC (maximal tolerable concentration) [3]: 1999.65 µM

SMILES: COc1c(F)cc2c(ncn2[C@@H]2O[C@H](CO)C[C@H]2O)c1F [Compound 13, 4,6-Difluoro-5-metoxy-1-(β-D-3′-deoxyribofuranosyl)benzimidazole]
- IC50 [1, 6]: 3000 µM
- IC95 ([2]; Vero E6, MOI 0.01): 3330 µM
- IC50 [2, 7]: 3000 µM
- MTC (maximal tolerable concentration) [3]: 1665.22 µM

SMILES: Nc1nc2cc(F)c(F)cc2n1[C@@H]1O[C@H](CO)C[C@H]1O [Compound 16, 2-Amino-5,6-difluoro-1-(β-D-3′-deoxyribofuranosyl)benzimidazole]
- IC50 [1, 6]: 996 µM
- IC95 [1]: > 1990 µM
- IC95 ([2]; Vero E6, MOI 0.01): > 1990 µM
- IC50 [2, 7]: 996 µM
- IC50 [2, 8]: 996 µM
- CD50 [3]: 3315.58 ± 141.99 µM
- MTC (maximal tolerable concentration) [3]: 1991.35 µM

SMILES: OC[C@H]1O[C@@H](n2cnc3cc(Cl)c(Cl)cc32)[C@H](O)[C@@H]1O [DRB, 5,6-dichloro-1-(β-D-ribofuranosyl)benzimidazole]
- IC50 [4]: 30 µM
- IC50 [5]: 42 µM

SMILES: Nc1nc2c(ncn2COCCO)c(=O)[nH]1 [acyclovir, reference compound]
- IC50 ([1]; Human alphaherpesvirus 1, Vero C1008, virus variant profoundly resistant to acyclovir): > 100 µg/mL and > 444 µM

SMILES: NC(=O)c1ncn([C@@H]2O[C@H](CO)[C@@H](O)[C@H]2O)n1 [ribavirin, reference compound]
- IC50 [1, 6]: 512 µM
- IC95 ([2]; Vero E6, MOI 0.01): 2050 µM
- MTC (maximal tolerable concentration) [3]: 4095.00 µM
